Laboratory results taken from patent US9169254B2, “Spiroimidazolone derivative” (Chugai Seiyaku Kabushiki Kaisha, priority 2009, dated 2015).

Biological target: T1, human PTH1 receptor (Homo sapiens, UniProt Q03431)
T1 sequence (Q03431 27-593): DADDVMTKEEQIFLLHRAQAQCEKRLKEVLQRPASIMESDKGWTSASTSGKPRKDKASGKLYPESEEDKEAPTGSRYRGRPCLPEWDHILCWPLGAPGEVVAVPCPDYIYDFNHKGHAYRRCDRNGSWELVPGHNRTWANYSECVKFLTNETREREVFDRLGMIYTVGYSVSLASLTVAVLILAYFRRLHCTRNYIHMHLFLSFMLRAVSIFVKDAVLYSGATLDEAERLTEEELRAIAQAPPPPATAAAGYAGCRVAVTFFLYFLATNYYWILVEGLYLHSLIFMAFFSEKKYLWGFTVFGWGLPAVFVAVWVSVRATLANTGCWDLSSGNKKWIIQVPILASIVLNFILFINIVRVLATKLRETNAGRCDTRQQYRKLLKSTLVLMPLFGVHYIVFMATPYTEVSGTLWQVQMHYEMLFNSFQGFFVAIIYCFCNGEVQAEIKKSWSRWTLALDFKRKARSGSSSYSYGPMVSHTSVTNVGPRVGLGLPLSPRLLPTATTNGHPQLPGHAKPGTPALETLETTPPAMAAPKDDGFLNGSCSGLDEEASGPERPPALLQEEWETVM
Assay: In vitro cAMP signal activity in HKRK-B7 cells (LLC-PK1 cells overexpressing the human PTH1 receptor)
Assay type: cell-based
Conditions: HKRK-B7 cells; compound at 1×10^−3 M; cAMP produced as percentage of that produced by hPTH(1-34) at 100 nM

Structure (SMILES)	cAMP production activity (%)
Cc1cc(NC2=NCCS2)cc(C)c1/C=C/S(=O)(=O)N1CCC2(CC1)N=C(C1CCCCC1)NC2=O [Compound 738, 2-Cyclohexyl-8-{(E)-2-[4-(4,5-dihydro-thiazol-2-ylamino)-2,6-dimethyl-phenyl]-ethenesulfonyl}-1,3,8-triaza-spiro[4.5]dec-1-en-4-one]	79
CN(C)C(=O)c1ccc(/C=C/S(=O)(=O)N2CCC3(CC2)N=C(c2cccc(OC(F)(F)F)c2)NC3=O)c(F)c1 [Compound 233, 3-fluoro-N,N-dimethyl-4-{(E)-2-[4-oxo-2-(3-trifluoromethoxy-phenyl)-1,3,8-triaza-spiro[4.5]dec-1-ene-8-sulfonyl]-vinyl}-benzamide]	13
O=C1NC(C2CCCCC2)=NC12CCN(S(=O)(=O)C/C=C/c1cccc3c1ccn3C[C@H](O)CO)CC2 [Compound 253, 2-Cyclohexyl-8-{(E)-3-[1-((S)-2,3-dihydroxy-propyl)-1H-indol-4-yl]-prop-2-ene-1-sulfonyl}-1,3,8-triaza-spiro[4.5]dec-1-en-4-one]	54
CCCCCCCCCC1=NC2(CCN(S(=O)(=O)CCc3ccc(C(=O)N4CCC4)cc3C)CC2)C(=O)N1 [Compound 978, 8-{2-[4-(azetidine-1-carbonyl)-2-methyl-phenyl]-ethanesulfonyl}-2-nonyl-1,3,8-triaza-spiro[4.5]dec-1-en-4-one]	91
Cc1cc(N2C(=O)CNC2=O)c(C)cc1CCS(=O)(=O)N1CCC2(CC1)N=C(C1CCC(C)CC1)NC2=O (stereo not shown) [Compound 778, 3-(2,5-dimethyl-4-{2-[2-(4-methyl-cyclohexyl)-4-oxo-1,3,8-triaza-spiro[4.5]dec-1-ene-8-sulfonyl]-ethyl}-phenyl)-imidazolidine-2,4-dione]	57
CC(C)(C)CNC(=O)Cc1ccc(/C=C/S(=O)(=O)N2CCC3(CC2)N=C(C2CCCCC2)NC3=O)cc1 [Compound 570, 2-{4-[(E)-2-(2-cyclohexyl-4-oxo-1,3,8-triaza-spiro[4.5]dec-1-ene-8-sulfonyl)-vinyl]-phenyl}-N-(2,2-dimethyl-propyl)-acetamide]	66
C=CCCCCCCCC(=O)N(C)c1cc(C)c(CCS(=O)(=O)N2CCC3(CC2)N=C(CCCCC=C)NC3=O)c(C)c1 [Compound 1443, dec-9-enoic acid {4-[2-(2-hex-5-enyl-4-oxo-1,3,8-triaza-spiro[4.5]dec-1-ene-8-sulfonyl)-ethyl]-3,5-dimethyl-phenyl}-methyl-amide]	61
O=C1NC(C2CCCCC2)=NC12CCN(S(=O)(=O)CCc1cccc3c1ccn3C[C@H](O)CO)CC2 [Compound 309, 2-cyclohexyl-8-{2-[1-((S)-2,3-dihydroxy-propyl)-1H-indol-4-yl]-ethanesulfonyl}-1,3,8-triaza-spiro[4.5]dec-1-en-4-one]	72
Cc1cc(C(=O)N2CCC2)ccc1CCS(=O)(=O)N1CCC2(CC1)N=C(c1cccc(C(F)(F)F)c1)NC2=O [Compound 381, 8-{2-[4-(azetidine-1-carbonyl)-2-methyl-phenyl]-ethanesulfonyl}-2-(3-trifluoromethyl-phenyl)-1,3,8-triaza-spiro[4.5]dec-1-en-4-one]	72
Cc1cc(N(C)C(N)=O)cc(C)c1/C=C/S(=O)(=O)N1CCC2(CC1)N=C(CCCCCCCC(F)(F)C(F)(F)F)NC2=O [Compound 1303, 1-(3,5-dimethyl-4-{(E)-2-[4-oxo-2-(8,8,9,9,9-pentafluoro-nonyl)-1,3,8-triaza-spiro[4.5]dec-1-ene-8-sulfonyl]-vinyl}-phenyl)-1-methyl-urea]	102
Cc1cc(C(=O)N2CCC(C)(O)CC2)cc(C)c1/C=C/S(=O)(=O)N1CCC2(CC1)N=C(c1ccc(OCC(F)(F)C(F)(F)F)c(C(F)(F)F)c1)NC2=O [Compound 1203, 8-{(E)-2-[4-(4-hydroxy-4-methyl-piperidine-1-carbonyl)-2,6-dimethyl-phenyl]-ethenesulfonyl}-2-[4-(2,2,3,3,3-pentafluoro-propoxy)-3-trifluoromethyl-phenyl]-1,3,8-triaza-spiro[4.5]dec-1-en-4-one]	90
Cc1cc(N2C(=O)CNC2=O)ccc1CCS(=O)(=O)N1CCC2(CC1)N=C(C1CCC(C)CC1)NC2=O (stereo not shown) [Compound 881, 3-(3-methyl-4-{2-[2-(4-methyl-cyclohexyl)-4-oxo-1,3,8-triaza-spiro[4.5]dec-1-ene-8-sulfonyl]-ethyl}-phenyl)-imidazolidine-2,4-dione]	48
CC(C)(C)C1=NC2(CCN(S(=O)(=O)c3cccc(Cl)c3)CC2)C(=O)N1 [Compound 16, 2-tert-butyl-8-(3-chloro-benzenesulfonyl)-1,3,8-triaza-spiro[4.5]dec-1-en-4-one]	41
CCCCCCCCCC1=NC2(CCN(S(=O)(=O)CCc3c(C)cc(C(=O)N4CCC(O)CC4)cc3C)CC2)C(=O)N1 [Compound 984, 8-{2-[4-(4-hydroxy-piperidine-1-carbonyl)-2,6-dimethyl-phenyl]-ethanesulfonyl}-2-nonyl-1,3,8-triaza-spiro[4.5]dec-1-en-4-one]	133
CC(=O)NCc1cc(C)c(CCS(=O)(=O)N2CCC3(CC2)N=C(C2CCC(C)CC2)NC3=O)c(C)c1 (stereo not shown) [Compound 773, N-(3,5-dimethyl-4-{2-[2-(4-methyl-cyclohexyl)-4-oxo-1,3,8-triaza-spiro[4.5]dec-1-ene-8-sulfonyl]-ethyl}-benzyl)-acetamide]	86
O=C1NC(C2CCCCC2)=NC12CCN(S(=O)(=O)/C=C/c1nccs1)CC2 [Compound 343, 2-Cyclohexyl-8-((E)-2-thiazol-2-yl-ethenesulfonyl)-1,3,8-triaza-spiro[4.5]dec-1-en-4-one]	13
Cc1cc(C(=O)N2CCC(O)(CF)CC2)cc(C)c1CCS(=O)(=O)N1CCC2(CC1)N=C(c1ccc(F)c(C(F)(F)F)c1)NC2=O [Compound 802, 8-{2-[4-(4-fluoromethyl-4-hydroxy-piperidine-1-carbonyl)-2,6-dimethyl-phenyl]-ethanesulfonyl}-2-(4-fluoro-3-trifluoromethyl-phenyl)-1,3,8-triaza-spiro[4.5]dec-1-en-4-one]	100
Cc1cc(C(=O)N(C)C)ccc1CCS(=O)(=O)N1CCC2(CC1)N=C(c1ccc(F)c(C(F)(F)F)c1)NC2=O [Compound 107, 4-{2-[2-(4-fluoro-3-trifluoromethyl-phenyl)-4-oxo-1,3,8-triaza-spiro[4.5]dec-1-ene-8-sulfonyl]-ethyl}-3,N,N-trimethyl-benzamide]	110
Cc1cc2c(ccn2C[C@@H](O)CO)c(C)c1/C=C/S(=O)(=O)N1CCC2(CC1)N=C(C1CCC(CCC(F)(F)F)CC1)NC2=O (stereo partly drawn) [Compound 630, 8-{(E)-2-[1-((R)-2,3-dihydroxy-propyl)-4,6-dimethyl-1H-indol-5-yl]-ethenesulfonyl}-2-[4-(3,3,3-trifluoro-propyl)-cyclohexyl]-1,3,8-triaza-spiro[4.5]dec-1-en-4-one]	4.1
